Results from the NIST ThermoML archive (doi:10.1016/j.jct.2016.02.009).

Assay: molar heat capacity at constant pressure
Settings: 101.33 kPa, Small (less than 1 g) adiabatic calorimetry

CCCCCCCCCCn1cc[n+](C)c1.O=S(=O)([N-]S(=O)(=O)C(F)(F)F)C(F)(F)F
molar heat capacity at constant pressure [J/K/mol]
Settings | Crystal 2 | Metastable crystal
142.54 K | – | 368.4
144.48 K | 358.2 | 372.5
146.41 K | – | 376.6
146.45 K | 361.5 | –
148.35 K | – | 380.7
148.41 K | 365 | –
150 K | 367.5 | 384.3
150.28 K | – | 384.8
150.38 K | 368.2 | –
152.21 K | – | 389.1
152.35 K | 371.7 | –
154.14 K | – | 393.4
154.32 K | 375 | –
155.25 K | 376.4 | –
156.07 K | – | 397.7
157.33 K | 380.2 | –
157.99 K | – | 402.2
159.29 K | 383.4 | –
159.91 K | – | 406.6
160 K | 384.7 | 406.8
161.26 K | 387 | –
161.83 K | – | 411
163.22 K | 390.1 | –
163.75 K | – | 415.7
165.19 K | 393.6 | –
165.66 K | – | 420.2
167.15 K | 397.2 | –
167.56 K | – | 425
169.11 K | 400.7 | –
169.47 K | – | 429.9
170 K | 402.3 | 431.2
171.07 K | 404.1 | –
171.37 K | – | 434.6
173.03 K | 407.6 | –
173.27 K | – | 440
174.98 K | 411.2 | –
175.16 K | – | 445.5
176.93 K | 414.8 | –
177.04 K | – | 451.4
178.88 K | 418.4 | –
178.92 K | – | 458.1
180 K | 420.7 | 462.6
180.78 K | – | 466
180.83 K | 422.1 | –
182.64 K | – | 476.8
182.78 K | 426 | –
184.47 K | – | 489.9
184.72 K | 430 | –
186.29 K | – | 501.9
186.66 K | 434 | –
188.1 K | – | 507.1
188.59 K | 438.2 | –
189.9 K | – | 510.3
190 K | 440.9 | 510.3
190.52 K | 442.2 | –
191.71 K | – | 511.1
192.45 K | 446.2 | –
193.51 K | – | 514.8
194.38 K | 450.4 | –
195.31 K | – | 521.6
196.3 K | 455.3 | –
197.11 K | – | 529.9
198.22 K | 460.2 | –
198.89 K | – | 539.6
200 K | 463.2 | 546.2
200.13 K | 465.1 | –
200.65 K | – | 550
202.1 K | 470.5 | –
202.46 K | – | 568.9
204.12 K | 476.2 | –
204.28 K | – | 599.4
206.02 K | – | 683.4
206.13 K | 482 | –
207.65 K | – | 752.9
208.14 K | 487.2 | –
209.38 K | – | 552.2
210 K | 489.1 | 513
210.15 K | 491.5 | –
211.31 K | – | 512.9
212.15 K | 495.6 | –
213.27 K | – | 512
214.15 K | 500.9 | –
215.24 K | – | 515.4
216.13 K | 507 | –
217.2 K | – | 523.2
218.12 K | 513.6 | –
219.17 K | – | 551.8
220 K | 519.8 | –
220.09 K | 520.6 | –
221.12 K | – | 812.2
222.05 K | 528.2 | –
224 K | 536.2 | –
225.95 K | 545.3 | –
227.87 K | 555.4 | –
229.79 K | 567 | –
230 K | 569.2 | –
231.68 K | 580.6 | –
233.56 K | 594.7 | –
235.42 K | 610.3 | –
237.26 K | 624.9 | –
